Test results reported in patent US20060069132A1, “Azolecarboxamide herbicides” (priority 2004, published 2006).
Read-outs that look alike come from different tables or passages of the source.

Tests used:
yellow nutsedge = test: Test C pre-/postemergence herbicide test; format: in vivo, Cyperus esculentus; details: for Plant response rating (0 = no effect, 100 = complete control), Nutsedge, Yellow: 125 g ai/ha
Outline: (§1)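 Greenhouse-grown plants were evaluated visually 12 to 14 days after treatment, with 100 meaning complete control and 0 no effect. Application was preemergence, or postemergence at 2 to 18 cm.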

ducksalad = test: Test C flooded paddy test; format: in vivo, Heteranthera limosa
corn = test: Test C pre-/postemergence herbicide test; format: in vivo, Zea mays; details: for Plant response rating (0 = no effect, 100 = complete control), Corn: 125 g ai/ha
Outline: as §1

giant foxtail = test: Test B pre-/postemergence herbicide test; format: in vivo, Setaria faberi; details: for Plant response rating (0 to 100 scale), Foxtail, Giant: 0 is no effect, preemergence
Outline: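 Response was scored visually 13 to 15 days after treatment against untreated greenhouse controls, 0 meaning no effect and 100 complete control. Formulations (solvent mixture plus surfactant) went onto soil after planting, onto foliage of 1- to 4-leaf plants, and onto 2-leaf plants in a flooded paddy set including rice and barnyardgrass.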

cocklebur = test: Test C pre-/postemergence herbicide test; format: in vivo, Xanthium strumarium; details: for Plant response rating (0 = no effect, 100 = complete control), Cocklebur: 125 g ai/ha
Outline: as §1

kochia = test: Test C pre-/postemergence herbicide test; format: in vivo, Kochia scoparia; details: for Plant response rating (0 = no effect, 100 = complete control), Kochia: 125 g ai/ha
Outline: as §1

barnyardgrass = test: Test C flooded paddy test; format: in vivo, Echinochloa crus-galli
Outline: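 Injury scored visually against controls on a 0 (no effect) to 100 (complete control) scale, 12 to 14 days after treatment in greenhouse. Flooded paddy plants treated at 2-leaf stage; postemergence plants at 1- to 4-leaf stage, 2 to 18 cm tall.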

pigweed = test: Test C pre-/postemergence herbicide test; format: in vivo, Amaranthus retroflexus; details: for Plant response rating (0 = no effect, 100 = complete control), Pigweed: 125 g ai/ha
Outline: as §1

[1] = 62 g ai/ha, preemergence, scale 0 to 100
[2] = 250 g ai/ha, scale 0-100, preemergence
[3] = 500 g ai/ha, scale 0 to 100 (0 no effect, 100 complete control), visual, 12 to 14 days, preemergence
[4] = 125 g ai/ha, scale 0 to 100 (0 no effect, 100 complete control)
[5] = 250 g ai/ha, scale of 0 to 100, 0 is no effect, 100 is complete control
[6] = 500 g ai/ha, visual rating after 12 to 14 days, scale 0 to 100 (0 no effect, 100 complete control)
[7] = 125 g ai/ha, 100 is complete control

CCc1nn(C(C)(C)C)nc1C(=S)Nc1cccc(C(=S)N(C)C)c1 [Compound 396]
Plant response rating, Nutsedge, Yellow (yellow nutsedge; [1]): 0
Plant response rating (0 = no effect, 100 = complete control), Nutsedge, Yellow (yellow nutsedge; preemergence): 25
Plant response rating, Nutsedge, Yellow (yellow nutsedge; [2]): 45
Plant response rating, Nutsedge, Yellow (yellow nutsedge; [3]): 80
Ducksalad plant response rating (ducksalad; 62 g ai/ha, scale 0 to 100): 0
Ducksalad plant response rating (ducksalad; [4]): 0
Ducksalad plant response rating (ducksalad; [5]): 65
Plant response rating, Ducksalad (ducksalad; [6]): 75
Plant response rating, Corn (corn; [1]): 0
Plant response rating (0 = no effect, 100 = complete control), Corn (corn; preemergence): 30
Plant response rating, Corn (corn; [2]): 60
Plant response rating, Corn (corn; [3]): 80
Plant response rating (0 to 100 scale), Foxtail, Giant (giant foxtail; [7]): 100
Foxtail, Giant plant response rating (giant foxtail; 125 g ai/ha, visual rating, scale 0 (no effect) to 100 (complete control), postemergence): 20
Foxtail, Giant plant response rating (giant foxtail; Postemergence, 500 g ai/ha, scale 0 (no effect) to 100 (complete control)): 30
Plant response rating, Cocklebur (cocklebur; [1]): 0
Plant response rating (0 = no effect, 100 = complete control), Cocklebur (cocklebur; preemergence): 0
Plant response rating, Cocklebur (cocklebur; [2]): 0
Plant response rating, Cocklebur (cocklebur; [3]): 0
Plant response rating, Kochia (kochia; [1]): 0
Plant response rating (0 = no effect, 100 = complete control), Kochia (kochia; preemergence): 45
Plant response rating, Kochia (kochia; [2]): 100
Plant response rating, Kochia (kochia; [3]): 100
Barnyardgrass plant response rating (barnyardgrass; 62 g ai/ha, scale 0 to 100 (0 no effect, 100 complete control)): 65
Barnyardgrass plant response rating (barnyardgrass; [4]): 75
Barnyardgrass plant response rating (barnyardgrass; [5]): 75
Plant response rating, Barnyardgrass (barnyardgrass; [6]): 80
Plant response rating, Pigweed (pigweed; [1]): 100
Plant response rating (0 = no effect, 100 = complete control), Pigweed (pigweed; preemergence): 100
Plant response rating, Pigweed (pigweed; [2]): 100
Plant response rating, Pigweed (pigweed; [3]): 100

CCn1nc2c(c1C(=O)Nc1cc(C(=O)N(C)C)ccc1F)CCC2(C)C [Compound 352, N-[5-[(dimethylamino)carbonyl]-2-fluorophenyl]-2-ethyl-2,4,5,6-tetrahydro-6,6-dimethyl-3-cyclopentapyrazolecarboxamide]
Plant response rating (0 = no effect, 100 = complete control), Nutsedge, Yellow (yellow nutsedge; preemergence): 0
pest or weed control at 62 g/ha (yellow nutsedge; Cyperus, pre-emergence, 62 g ai/ha, preemergence, scale 0 to 100, read-out: Plant response rating, Nutsedge, Yellow): 0%
pest or weed control at 250 g/ha (yellow nutsedge; Cyperus, pre-emergence, 250 g ai/ha, scale 0-100, read-out: Plant response rating, Nutsedge, Yellow): 10%
pest or weed control at 500 g/ha (yellow nutsedge; Cyperus, pre-emergence, 500 g ai/ha, scale 0 to 100 (0 no effect, 100 complete control), visual, 12 to 14 days, read-out: Plant response rating, Nutsedge, Yellow): 50%
pest or weed control at 62 g/ha (ducksalad; Heteranthera limosa, 62 g ai/ha, scale 0 to 100, read-out: Ducksalad plant response rating): 20%
pest or weed control at 125 g/ha (ducksalad; Heteranthera limosa, 125 g ai/ha, scale 0 to 100 (0 no effect, 100 complete control), read-out: Ducksalad plant response rating): 65%
pest or weed control at 250 g/ha (ducksalad; Heteranthera limosa, 250 g ai/ha, scale of 0 to 100, 0 is no effect, 100 is complete control, read-out: Ducksalad plant response rating): 85%
pest or weed control at 500 g/ha (ducksalad; Heteranthera limosa, 500 g ai/ha, visual rating after 12 to 14 days, scale 0 to 100 (0 no effect, 100 complete control), read-out: Plant response rating, Ducksalad): 95%
Plant response rating (0 = no effect, 100 = complete control), Corn (corn; preemergence): 15
Corn plant response rating (crop injury, 0 = no effect, 100 = complete kill) at 62 g/ha (corn; Zea mays, pre-emergence, 312 h, 62 g ai/ha, preemergence, scale 0 to 100): 0%
Corn plant response rating (crop injury, 0 = no effect, 100 = complete kill) at 250 g/ha (corn; Zea mays, pre-emergence, 312 h, 250 g ai/ha, scale 0-100): 30%
Corn plant response rating (crop injury, 0 = no effect, 100 = complete kill) at 500 g/ha (corn; Zea mays, pre-emergence, 312 h, 500 g ai/ha, scale 0 to 100 (0 no effect, 100 complete control), visual, 12 to 14 days): 50%
Plant response rating (0 to 100 scale), Foxtail, Giant (giant foxtail; [7]): 70
pest or weed control at 125 g/ha (giant foxtail; Setaria faberi, post-emergence, 336 h, 125 g ai/ha, visual rating, scale 0 (no effect) to 100 (complete control), read-out: Foxtail, Giant plant response rating): 10%
pest or weed control at 500 g/ha (giant foxtail; Setaria faberi, post-emergence, 336 h, postemergence, 500 g ai/ha, scale 0 to 100, 0 is no effect, 100 is complete control, read-out: Foxtail, Giant plant response rating): 30%
pest or weed control at 500 g/ha (giant foxtail; Setaria faberi, pre-emergence, 336 h, 500 g ai/ha, visual rating, 0 = no effect, 100 = complete control, read-out: Plant response rating, Foxtail, Giant): 100%
Plant response rating (0 = no effect, 100 = complete control), Cocklebur (cocklebur; preemergence): 0
pest or weed control at 62 g/ha (cocklebur; Xanthium strumarium, pre-emergence, 312 h, 62 g ai/ha, preemergence, scale 0 to 100, read-out: Plant response rating, Cocklebur): 0%
pest or weed control at 250 g/ha (cocklebur; Xanthium strumarium, pre-emergence, 312 h, 250 g ai/ha, scale 0-100, read-out: Plant response rating, Cocklebur): 0%
pest or weed control at 500 g/ha (cocklebur; Xanthium strumarium, pre-emergence, 312 h, 500 g ai/ha, scale 0 to 100 (0 no effect, 100 complete control), visual, 12 to 14 days, read-out: Plant response rating, Cocklebur): 30%
Plant response rating (0 = no effect, 100 = complete control), Kochia (kochia; preemergence): 85
pest or weed control at 62 g/ha (kochia; Bassia scoparia, pre-emergence, 62 g ai/ha, preemergence, scale 0 to 100, read-out: Plant response rating, Kochia): 80%
pest or weed control at 250 g/ha (kochia; Bassia scoparia, pre-emergence, 250 g ai/ha, scale 0-100, read-out: Plant response rating, Kochia): 100%
pest or weed control at 500 g/ha (kochia; Bassia scoparia, pre-emergence, 500 g ai/ha, scale 0 to 100 (0 no effect, 100 complete control), visual, 12 to 14 days, read-out: Plant response rating, Kochia): 100%
pest or weed control at 62 g/ha (barnyardgrass; Echinochloa crus-galli, 62 g ai/ha, scale 0 to 100 (0 no effect, 100 complete control), read-out: Barnyardgrass plant response rating): 25%
pest or weed control at 125 g/ha (barnyardgrass; Echinochloa crus-galli, 125 g ai/ha, scale 0 to 100 (0 no effect, 100 complete control), read-out: Barnyardgrass plant response rating): 45%
pest or weed control at 250 g/ha (barnyardgrass; Echinochloa crus-galli, 250 g ai/ha, scale of 0 to 100, 0 is no effect, 100 is complete control, read-out: Barnyardgrass plant response rating): 65%
pest or weed control at 500 g/ha (barnyardgrass; Echinochloa crus-galli, 500 g ai/ha, visual rating after 12 to 14 days, scale 0 to 100 (0 no effect, 100 complete control), read-out: Plant response rating, Barnyardgrass): 90%
Plant response rating (0 = no effect, 100 = complete control), Pigweed (pigweed; preemergence): 85
pest or weed control at 62 g/ha (pigweed; Amaranthus retroflexus, pre-emergence, 62 g ai/ha, preemergence, scale 0 to 100, read-out: Plant response rating, Pigweed): 40%
pest or weed control at 250 g/ha (pigweed; Amaranthus retroflexus, pre-emergence, 250 g ai/ha, scale 0-100, read-out: Plant response rating, Pigweed): 100%
pest or weed control at 500 g/ha (pigweed; Amaranthus retroflexus, pre-emergence, 500 g ai/ha, scale 0 to 100 (0 no effect, 100 complete control), visual, 12 to 14 days, read-out: Plant response rating, Pigweed): 100%
